Measurements published in patent publication US5266562A, “Anti-inflammatory agents” (The United States of America as represented by the …, priority 1987, dated 1993).
Like-named read-outs stand apart in the source and are kept apart here.

B1: Uteroglobin: protein purified from uterine washings of rabbits primed with chorionic gonadotropin; also known as blastokinin (protein, UniProt P02779 22-91, looked up)
Uteroglobin: GICPRFAHVIENLLLGTPSSYETSLKEFEPDDTMKDAGMQMKKVLDSLPQTTRENIMKLTEKIVKSPLCM

How the values were obtained:
[1] = system: phorbol myristate acetate induced inflammation on rabbit skin; details: for Histopathology: inflammatory cells in phorbol injected skin (in words) / Effect on phorbol induced erythema and induration (in words) / Erythema (mm), Phorbol injected / Induration (mm), Phorbol injected: rabbit skin; for Histopathology: inflammatory cells in phorbol injected skin (in words): 20 μM injected after phorbol, FIG. 3; for Erythema (mm), Phorbol injected / Induration (mm), Phorbol injected: phorbol myristate acetate 10 μM, 0.1 ml, test substance 20 μM, mean ± SEM
Procedure: Animals: Virgin New Zealand rabbits weighting 3-3.5 Kg were used for all experiments. These animals were housed in separate cages and provided with food and water ad libitum. A daily schedule of 12 hours light and 12 hours darkness was maintained throughout the experimental period.
Induction of inflammation and the effect of uteroglobin: The dorsal skin of rabbits was shaved and 1/2 square inch areas demarcated lightly with a felt tip marker pen. […] The demarcated areas were used for identifying the locations where phorbol, carragennin, or other test substances were injected. Using a 25 gauge needle and a tuberculin syringe (1 cc), phorbol myristate acetate solution (10 mM) was injected into all areas, except for two, where no injections were given and two other areas where the solvent of phorbol myristate, dimethyl sulfoxide (DMSO), was injected alone. Various test substances were injected on one side of the vertebral column and the opposite side was used for controls. Thus, in this system a comparison of phorbol induced inflammation with the effects of various test substances could easily be made. These areas were observed daily and the diameter of the erythema and induration for each lesion was measured by the same observer. […] These tissues were used for histopathological analysis.

[2] = system: prostanoid levels (PGE2, PGF2α) in skin lesions; test: Prostanoid levels (radioimmunoassay) in tissues injected with phorbol myristate acetate; format: in vivo, rabbit; details: for Effect on tissue prostanoid levels (PGE2, PGF2α) (in words): rabbit skin lesions injected with phorbol; for Prostaglandin levels PGE2 / Prostaglandin levels PGF2 α: rabbit skin lesions, phorbol 10 μM then test substance 20 μM 0.1 ml after 5 minutes, mean of two experiments; for Prostaglandin levels PGF2 α: ND = Nondetectable
Procedure: These tissues were used for histopathological analysis.
A similar groups of animals were sacrificed 48 hours after the injections were made and the skin lesions were dissected out and homogenized in cold phosphate buffered saline (PBS, pH 7.4). The homogenate was centrifuged at 2500×g for 10 minutes at 4° C. The supernatants were frozen at -70° C. until assayed for prostaglandins.

[3] = equimolar concentrations, concentration not given

Row | Molecule | Histopathology: inflammatory cells in phorbol injected skin (in words) [1] | Effect on phorbol induced erythema and induration (in words) [1, 3] | Erythema (mm), Phorbol injected [1] [mm] | Induration (mm), Phorbol injected [1] [mm] | Effect on tissue prostanoid levels (PGE2, PGF2α) (in words) [2] | Prostaglandin levels PGE2 [2] [pg/mg protein] | Prostaglandin levels PGF2 α [2] [pg/mg protein] | Erythema and induration induced by the substance itself (in words) ([1]; rabbit, in vivo) | Effect on phorbol induced erythema and induration (in words) ([1]; 10 μM, FIG. 4 dose response) | Effect on phorbol induced erythema and induration (in words) ([1]; 20 μM, FIG. 4 dose response)
1 | C[C@@H]1C[C@H]2[C@@H]3CCC4=CC(=O)C=C[C@]4(C)[C@@]3(F)[C@@H](O)C[C@]2(C)[C@@]1(O)C(=O)CO [Dexamethasone] | reduced the density of these inflammatory cells | dramatically reduced both erythema as well as induration | 10.5 ± 1.2 | 8.1 ± 2.0 | dramatically reduced these prostanoid levels | 106 | 88 |  |  | 
2 | CCCCC/C=C\C/C=C\C/C=C\C/C=C\CCCC(=O)O [arachidonic acid] |  |  |  |  |  |  |  | induced some erythema and induration |  | 
3 | Myoglobin | did not have any inhibitory effect | did not have any suppressive effect |  |  |  |  |  |  |  | 
4 | B1 |  | dramatically reduced both erythema as well as induration | 6.4 ± 0.5 | 5.1 ± 0.8 | dramatically reduced these prostanoid levels | 94 | 58 |  | Significant inhibitory effect | most dramatic effect
